Assay results as given in the NIST ThermoML archive (doi:10.1016/j.jct.2014.04.016).
Where “and” joins values, the source holds several entries; their conditions need not be identical. Equal entries are not always repeated. Numbers after ± are expanded uncertainties.

Experiment: xn = mol fraction of the nth substance listed
Settings: 100 kPa; for electrical conductivity: Alternating current cell with electrodes; for viscosity: Concentric cylinders viscometry; for mass density: Vibrating tube method

CCCCCCCCOS(=O)(=O)[O-].CCn1cc[n+](C)c1 [1-ethyl-3-methylimidazolium octyl sulfate] + O
Settings | electrical conductivity | mass density | viscosity
278.1 K, Glass, x1 = 0.1197 | – | – | 591.8 ± 63 mPa·s
278.1 K, Glass, x1 = 0.3555 | 0.188 ± 0.004 S/m | – | 2561 ± 480 mPa·s and 2061 ± 350 mPa·s
278.1 K, Liquid, x1 = 0.0401 | 1.32 S/m and 1.31 S/m | – | –
278.1 K, Liquid, x1 = 0.0586 | 1.24 S/m | – | –
278.1 K, Liquid, x1 = 0.1197 | – | 1079 ± 1 kg/m3 | –
278.1 K, Liquid, x1 = 0.1402 | – | 1080.9 ± 1 kg/m3 | –
278.1 K, Liquid, x1 = 0.3555 | – | 1099.7 ± 1 kg/m3 and 1099.8 ± 1 kg/m3 | –
278.1 K, Liquid, x1 = 0.4108 | 0.144 ± 0.004 S/m | 1101.5 ± 1 kg/m3 | 394.6 ± 37 mPa·s
278.1 K, Liquid, x1 = 0.4688 | 0.097 ± 0.003 S/m | – | –
278.1 K, Liquid, x1 = 0.5001 | 0.089 ± 0.003 S/m | – | –
278.6 K, Glass, x1 = 0.3555 | – | – | 1160 ± 160 mPa·s
278.6 K, Liquid, x1 = 0.3555 | – | 1099.4 ± 1 kg/m3 | –
279.1 K, Glass, x1 = 0.3555 | 0.198 ± 0.005 S/m | – | 633.2 ± 68 mPa·s
279.1 K, Liquid, x1 = 0.0803 | 1.1 ± 0.023 S/m | – | –
279.1 K, Liquid, x1 = 0.1197 | 0.866 ± 0.019 S/m | – | –
279.1 K, Liquid, x1 = 0.3555 | – | 1098.8 ± 1 kg/m3 | –
280.1 K, Glass, x1 = 0.1402 | 0.788 ± 0.017 S/m | – | –
280.1 K, Liquid, x1 = 0.3555 | 0.206 S/m and 0.205 S/m | 1098.3 ± 1 kg/m3 | 307.6 ± 27 mPa·s
280.1 K, Liquid, x1 = 0.4688 | 0.109 ± 0.003 S/m | – | –
280.6 K, Liquid, x1 = 0.3555 | – | 1097.9 ± 1 kg/m3 | 297.5 ± 25 mPa·s
281.1 K, Glass, x1 = 0.1402 | 0.815 S/m and 0.816 S/m | – | –
281.1 K, Glass, x1 = 0.1605 | 0.737 ± 0.015 S/m | – | –
281.1 K, Liquid, x1 = 0.0803 | 1.22 ± 0.026 S/m | – | –
281.1 K, Liquid, x1 = 0.1197 | 0.927 ± 0.02 S/m | – | –
281.1 K, Liquid, x1 = 0.3555 | 0.215 S/m and 0.214 S/m | 1097.6 ± 1 kg/m3 | 287.4 ± 24 mPa·s
281.1 K, Liquid, x1 = 0.4108 | 0.168 ± 0.004 S/m | – | –
282.1 K, Glass, x1 = 0.1402 | 0.848 S/m and 0.847 S/m | – | –
282.1 K, Glass, x1 = 0.1605 | 0.766 ± 0.016 S/m | – | –
282.1 K, Glass, x1 = 0.3076 | – | – | 12190 ± 4500 mPa·s
282.1 K, Liquid, x1 = 0.3076 | – | 1094.6 ± 1 kg/m3 | –
282.1 K, Liquid, x1 = 0.3555 | – | 1096.9 ± 1 kg/m3 | 268.8 ± 22 mPa·s
282.6 K, Glass, x1 = 0.3076 | – | – | 7608 ± 2300 mPa·s
282.6 K, Liquid, x1 = 0.3076 | – | 1094.3 ± 1 kg/m3 | –
283.1 K, Glass, x1 = 0.1402 | 0.873 S/m and 0.874 S/m | – | 11410 ± 4100 mPa·s
283.1 K, Glass, x1 = 0.1605 | 0.793 S/m and 0.791 S/m | – | –
283.1 K, Glass, x1 = 0.2119 | 0.566 S/m and 0.563 S/m | – | –
283.1 K, Glass, x1 = 0.2632 | 0.393 ± 0.009 S/m | – | –
283.1 K, Glass, x1 = 0.3076 | – | – | 2873 ± 550 mPa·s
283.1 K, Liquid, x1 = 0.0401 | 1.48 S/m | – | –
283.1 K, Liquid, x1 = 0.0586 | 1.46 S/m and 1.45 S/m | – | –
283.1 K, Liquid, x1 = 0.0803 | 1.29 ± 0.027 S/m | – | –
283.1 K, Liquid, x1 = 0.1197 | 0.987 ± 0.021 S/m | 1075.7 ± 1 kg/m3 | 105.5 ± 7.3 mPa·s
283.1 K, Liquid, x1 = 0.1402 | – | 1078.9 ± 1 kg/m3 | –
283.1 K, Liquid, x1 = 0.3076 | – | 1094.1 ± 1 kg/m3 | –
283.1 K, Liquid, x1 = 0.3555 | 0.234 S/m and 0.236 S/m | 1096.1 ± 1 kg/m3 and 1096.2 ± 1 kg/m3 | 251.8 ± 20 mPa·s and 251.7 ± 20 mPa·s
283.1 K, Liquid, x1 = 0.4108 | 0.189 ± 0.004 S/m | 1098 ± 1 kg/m3 | 282.2 ± 24 mPa·s
283.1 K, Liquid, x1 = 0.4688 | 0.128 S/m and 0.124 S/m | – | –
283.1 K, Liquid, x1 = 0.5001 | 0.117 ± 0.003 S/m | – | –
283.6 K, Glass, x1 = 0.3076 | – | – | 1129 ± 150 mPa·s
283.6 K, Liquid, x1 = 0.3076 | – | 1093.8 ± 1 kg/m3 | –
284.1 K, Glass, x1 = 0.1605 | 0.819 ± 0.017 S/m | – | –
284.1 K, Glass, x1 = 0.2632 | 0.409 ± 0.009 S/m | – | –
284.1 K, Glass, x1 = 0.3076 | 0.335 ± 0.007 S/m | – | 560.6 ± 57 mPa·s
284.1 K, Liquid, x1 = 0.1402 | 0.908 S/m and 0.907 S/m | – | –
284.1 K, Liquid, x1 = 0.3076 | – | 1093.6 ± 1 kg/m3 | –
285.1 K, Glass, x1 = 0.1402 | – | – | 6220 ± 1600 mPa·s
285.1 K, Glass, x1 = 0.1605 | 0.847 S/m and 0.848 S/m | – | –
285.1 K, Glass, x1 = 0.2632 | 0.431 ± 0.01 S/m | – | –
285.1 K, Glass, x1 = 0.3076 | 0.349 ± 0.008 S/m | – | –
285.1 K, Liquid, x1 = 0.0803 | 1.37 ± 0.029 S/m | – | –
285.1 K, Liquid, x1 = 0.1197 | 1.06 ± 0.023 S/m | – | –
285.1 K, Liquid, x1 = 0.1402 | 0.934 S/m and 0.936 S/m | 1077.9 ± 1 kg/m3 | –
285.1 K, Liquid, x1 = 0.3076 | – | 1092.7 ± 1 kg/m3 | 191.9 ± 15 mPa·s
285.1 K, Liquid, x1 = 0.3555 | 0.258 S/m and 0.257 S/m | – | –
285.1 K, Liquid, x1 = 0.4108 | 0.209 ± 0.005 S/m | – | –
285.1 K, Liquid, x1 = 0.4688 | 0.142 ± 0.004 S/m | – | –
285.6 K, Liquid, x1 = 0.3076 | – | 1092.4 ± 1 kg/m3 | 186 ± 14 mPa·s
286.1 K, Glass, x1 = 0.1402 | – | – | 4375 ± 980 mPa·s
286.1 K, Glass, x1 = 0.1605 | 0.875 S/m and 0.876 S/m | – | –
286.1 K, Glass, x1 = 0.2632 | 0.449 S/m and 0.445 S/m | – | –
286.1 K, Glass, x1 = 0.3076 | 0.363 S/m and 0.362 S/m | – | –
286.1 K, Liquid, x1 = 0.1402 | 0.965 S/m and 0.967 S/m | 1077.3 ± 1 kg/m3 | –
286.1 K, Liquid, x1 = 0.3076 | – | 1092 ± 1 kg/m3 | 180.2 ± 14 mPa·s
286.6 K, Glass, x1 = 0.2632 | 0.455 ± 0.01 S/m | – | –
286.6 K, Liquid, x1 = 0.2632 | – | 1088.8 ± 1 kg/m3 | –
286.6 K, Liquid, x1 = 0.3076 | – | 1091.7 ± 1 kg/m3 | 174.6 ± 13 mPa·s
287.1 K, Glass, x1 = 0.1402 | – | – | 2587 ± 460 mPa·s
287.1 K, Glass, x1 = 0.1605 | 0.904 ± 0.019 S/m | – | –
287.1 K, Glass, x1 = 0.1766 | 0.817 ± 0.017 S/m | – | –
287.1 K, Glass, x1 = 0.2632 | 0.463 ± 0.01 S/m | – | 14710 ± 5800 mPa·s
287.1 K, Liquid, x1 = 0.1197 | 1.13 ± 0.024 S/m | – | –
287.1 K, Liquid, x1 = 0.1402 | 0.996 S/m and 0.997 S/m | – | –
287.1 K, Liquid, x1 = 0.1605 | 0.906 ± 0.019 S/m | – | –
